Laboratory results as given in patent US12419947B2, “Inorganic polyatomic oxyanions for protecting against antigenic damage during pathogen inactivation for vaccine production” (priority 2016, dated 2025).

Legend:
[1] = test system: dengue serotype 4 (DENV4); experiment: DENV-specific sandwich ELISA (MAbs 15A5 and 6H6) on treated DENV4; type: binding, dengue virus; conditions: for antigenicity (ELISA at 20 hrs post-inactivation): H2O2=0.01%, compound 10 μM; for ELISA signal / antigenicity with added salt during H2O2/CuCl2 inactivation: 0.01% H2O2, 1 μM CuCl2, 20 hours, vs standard conditions; for ELISA signal with added oxyanion during formaldehyde inactivation: 0.01% formaldehyde, 20 days at 37° C.; for ELISA signal with added oxyanion during BPL inactivation: 0.1% BPL
[2] = test system: dengue virus 3 (DENV3); experiment: DENV-specific sandwich ELISA on treated DENV3; type: binding; conditions: H2O2 0.01%
[3] = test system: chikungunya virus (CHIKV); experiment: CHIKV-specific sandwich ELISA (retained antigenicity); type: binding
[4] = test system: yellow fever virus (YFV)
[5] = test system: DENV2; experiment: DENV2 inactivation kinetics (PFU assay); type: cell-based, dengue virus; conditions: 3% H2O2, or 0.01% H2O2 and 1 μM CuCl2, room temperature
[6] = test system: Campylobacter coli (C. coli); experiment: Campylobacter morphology after inactivation (Gram safranin stain); conditions: 3% H2O2 5 hours, or 0.01% H2O2 and 2 uM CuCl2
[7] = test system: dengue serotype 4 (DENV4); experiment: DENV4 live virus plaque assay on Vero cells; type: cell-based, dengue virus; conditions: for rate of inactivation (viable virus at 1 hr post-inactivation): H2O2=0.01%, compound 10 μM; for virus inactivation with added salt during H2O2/CuCl2 inactivation: 0.01% H2O2, 1 μM CuCl2, 20 hours
[8] = test system: chikungunya virus (CHIKV); type: cell-based
[9] = test system: vaccinia virus (VV); type: cell-based; conditions: H2O2=0.002%, CuCl2=1 μM, MZ=10 μM, PBS pH=7.5
[10] = test system: Shigella dysenteriae; experiment: Shigella dysenteriae inactivation (CFU/mL); type: cell-based; conditions: H2O2=0.10%, CuCl2=10 μM, MZ=100 μM, 150 mM NaPO4
[11] = test system: Listeria monocytogenes; experiment: Listeria monocytogenes inactivation (CFU/mL); type: cell-based; conditions: H2O2=0.10%, MZ=100 μM, 150 mM NaPO4
[12] = test system: smallpox; conditions: in vivo; cited from earlier work
[13] = test system: Campylobacter coli (C. coli); experiment: C. coli inactivation (viable bacteria over time); type: cell-based; conditions: H2O2=0.01%, MZ=20 μM, 150 mM NaPO4
[14] = test system: vaccinia; conditions: cited from earlier work
[15] = BEI, Na2HPO4 150 mM, 20 hours at 37° C.
[16] = 0.01% formaldehyde with high oxyanion, 20 days at 37° C.
[17] = 0.1% BPL with high oxyanion, 20 hours
[18] = 20 hours, room temperature, 150 mM NaPO4

## O=C1CCO1 [BPL, β-propiolactone, reference compound]
[1]; standard BPL conditions: 0.1% BPL, 20 hours, room temperature
  ELISA signal: loss of ELISA signal

## [Cl][Fe]([Cl])[Cl] [FeCl3]
[2]
  antigenicity with increasing FeCl3 concentrations: enhanced antigenicity

## OO [H2O2, hydrogen peroxide]
[3]; 3% H2O2 under standard conditions
  antigenicity (in vitro potency testing using envelope-specific MAbs): nearly complete loss of antigenicity
[4]
  neutralizing epitopes (antigenicity): severe damage to neutralizing epitopes
[5]
  kinetics of virus inactivation versus total viral protein concentration: protein concentration-independent
[6]
  bacterial morphology: substantially damaged with clear changes in morphology

## CCCN1C(=O)C(=NNC(N)=S)c2ccccc21 [N-propylisatin β-thiosemicarbazone]
[1]; CuCl2=1 μM, 150 mM NaPO4
  antigenicity (ELISA at 20 hrs post-inactivation): superior antigenicity
[7]; CuCl2=1 μM, 150 mM NaPO4
  rate of inactivation (viable virus at 1 hr post-inactivation): enhanced rates of inactivation

## O=P(O)(O)O [Na2HPO4, sodium phosphate]
[1]; room temperature
  ELISA signal / antigenicity with added salt during H2O2/CuCl2 inactivation: increased ELISA signal
[1]
  ELISA signal with added oxyanion during formaldehyde inactivation: increased ELISA signals
[1]; 20 hours, room temperature
  ELISA signal with added oxyanion during BPL inactivation: increased ELISA signals
[1]; [15]
  ELISA signal with added oxyanion during BEI inactivation: increased ELISA signals
[3]; 0.01% H2O2, 5 μM CuCl2, 20 hours, 150 mM Na2HPO4 with or without 3 mM Na3P3O9
  ELISA signal with added oxyanion during H2O2/CuCl2 inactivation: increased ELISA signals
[8]
  residual live virus (co-culture, estimated LOD of 100 PFU/mL): completely inactivated
[7]
  virus inactivation with added salt during H2O2/CuCl2 inactivation: complete virus inactivation
[7]; [16]
  virus inactivation: completely inactivated
[7]; [17]
  virus inactivation: completely inactivated
[7]; 150 mM vs 10 mM, 0.01% H2O2, 1 μM CuCl2
  kinetics of virus inactivation in presence vs absence of high Na2HPO4: similar
[7]; [15]
  virus inactivation: completely inactivated

## NC(=S)NN=C1C(=O)Nc2ccccc21 [isatin β-thiosemicarbazone]
[1]; CuCl2=1 μM, 150 mM NaPO4
  antigenicity (ELISA at 20 hrs post-inactivation): superior antigenicity
[7]; CuCl2=1 μM, 150 mM NaPO4
  rate of inactivation (viable virus at 1 hr post-inactivation): enhanced rates of inactivation

## O=C1Nc2ccccc2C1=O [isatin]
[1]; CuCl2=1 μM, 150 mM NaPO4
  antigenicity (ELISA at 20 hrs post-inactivation): protection of protein antigens from oxidative damage
[7]; CuCl2=1 μM, 150 mM NaPO4
  rate of inactivation (viable virus at 1 hr post-inactivation): do not appear to increase the rate of inactivation

## [Cl-].[Cl-].[Mg+2] [magnesium chloride, reference compound]
[1]; room temperature
  ELISA signal / antigenicity with added salt during H2O2/CuCl2 inactivation: no protective effect on antigenicity

## O=S(=O)([O-])[O-].[Mg+2] [magnesium sulfate]
[1]; room temperature
  ELISA signal / antigenicity with added salt during H2O2/CuCl2 inactivation: improved antigenicity
[7]
  virus inactivation with added salt during H2O2/CuCl2 inactivation: complete virus inactivation

## CN1C(=O)/C(=N\NC(N)=S)c2ccccc21 [methisazone, N-methyl-isatin β-thiosemicarbazone]
[9]
  rate of dual-oxidation-based inactivation on addition of methisazone: substantially increase the rate
[10]
  inactivation rate on addition of methisazone to H2O2/CuCl2: substantially enhanced inactivation rates
[1]; [18]
  antigenicity on addition of methisazone to dual oxidation: maintained or significantly improved antigenicity
[1]; H2O2=0.002%, CuCl2=1 μM, 150 mM Na2HPO4, methisazone 10 μM, 20 hours
  antigenicity, methisazone together with polyatomic oxyanions: higher antigenicity than could be achieved by either approach in isolation
[3]; [18]
  antigenicity on addition of methisazone to dual oxidation: maintained or significantly improved antigenicity
[3]; H2O2 0.02%, CuCl2 1 μM, 150 mM NaPO4
  retained antigenicity at 20 hrs with increasing methisazone relative to the transition metal: improvements in both retained antigenicity
[11]
  inactivation rate on addition of methisazone to H2O2/CuCl2: substantially enhanced inactivation rates
[8]
  increase of the rate of inactivation on addition of methisazone: 10- to 20 fold
  rate of dual-oxidation-based inactivation on addition of methisazone: substantially increase the rate
  virus inactivation (plaque assay at 1 hr) with increasing methisazone relative to the transition metal: increased virus inactivation rates
  virus inactivation by methisazone alone: minimal impact
[12]
  deaths among close contacts receiving methisazone: no deaths
[13]
  inactivation rate on addition of methisazone to H2O2/CuCl2: substantially enhanced inactivation rates
[14]; mean initial dose 152 mg/kg, total average 809 mg/kg over 3.75 days
  serious adverse events: lack of serious adverse events
[14]; used prophylactically prior to vaccinia vaccination
  complications of vaccinia vaccination: reduce complications
[7]; H2O2=0.002%, CuCl2=1 μM, MZ=10 μM, 150 mM NaPO4
  rate of dual-oxidation-based inactivation on addition of methisazone: substantially increase the rate
[7]; MZ=10 μM
  virus inactivation by methisazone alone: minimal impact
[7]; dual oxidation, 150 mM NaPO4, stated for CHIKV and DENV4 together
  increase of the rate of inactivation on addition of methisazone: 10- to 20 fold

## NNC(N)=O [semicarbazide]
[1]; CuCl2=1 μM, 150 mM NaPO4
  antigenicity (ELISA at 20 hrs post-inactivation): protection of protein antigens from oxidative damage
[7]; CuCl2=1 μM, 150 mM NaPO4
  rate of inactivation (viable virus at 1 hr post-inactivation): do not appear to increase the rate of inactivation

## [Cl-].[Na+] [sodium chloride, reference compound]
[1]; room temperature
  ELISA signal / antigenicity with added salt during H2O2/CuCl2 inactivation: no protective effect on antigenicity

## O=S(=O)([O-])[O-].[Na+].[Na+] [sodium sulfate]
[1]; room temperature
  ELISA signal / antigenicity with added salt during H2O2/CuCl2 inactivation: improved antigenicity
[1]
  ELISA signal with added oxyanion during formaldehyde inactivation: increased ELISA signals
[1]; 20 hours, room temperature
  ELISA signal with added oxyanion during BPL inactivation: increased ELISA signals
[7]
  virus inactivation with added salt during H2O2/CuCl2 inactivation: complete virus inactivation
[7]; [16]
  virus inactivation: completely inactivated
[7]; [17]
  virus inactivation: completely inactivated

## O=P1([O-])OP(=O)([O-])OP(=O)([O-])O1.[Na+].[Na+].[Na+] [sodium trimetaphosphate]
[1]; room temperature
  ELISA signal / antigenicity with added salt during H2O2/CuCl2 inactivation: increased ELISA signals
[7]
  virus inactivation with added salt during H2O2/CuCl2 inactivation: completely inactivated

## O=P([O-])([O-])OP(=O)([O-])OP(=O)([O-])[O-].[Na+].[Na+].[Na+].[Na+].[Na+] [sodium triphosphate]
[1]; room temperature
  ELISA signal / antigenicity with added salt during H2O2/CuCl2 inactivation: increased ELISA signals
[7]
  virus inactivation with added salt during H2O2/CuCl2 inactivation: completely inactivated

## NNC(N)=S [thiosemicarbazide]
[1]; CuCl2=1 μM, 150 mM NaPO4
  antigenicity (ELISA at 20 hrs post-inactivation): superior antigenicity
[7]; CuCl2=1 μM, 150 mM NaPO4
  rate of inactivation (viable virus at 1 hr post-inactivation): enhancement of inactivation
